Laboratory results taken from EP0476645B1, “Calcium uptake inhibitors” (MERRELL DOW PHARMACEUTICALS INC., priority 1990, dated 1992).
Where two headings read alike, the source gives them in different places.

System: Rat PMNL
Assay: Myeloperoxidase (MPO) release from stimulated PMNL
Format: cell-based
Conditions: for inhibition at 1 µM / inhibition at 3 µM / inhibition at 10 µM / inhibition at 30 µM / inhibition at 100 µM: Rattus norvegicus, PMNL, inhibition of MPO release; for inhibition at 1 µM: 1 µM compound; for inhibition at 3 µM: 3 µM compound; for inhibition at 10 µM: 10 µM compound; for inhibition at 30 µM: 30 µM compound; for inhibition at 100 µM: 100 µM compound; for inhibition of release of myeloperoxidase: fMLP with cytochalasin B, opsonized zymosan or ionomycin stimulus, result in words
Procedure: Rat PMNL were obtained from exudates resulting from peritoneal injection of 6 mL of 8% sodium caseinate. Eighteen hours after injection rats were killed by carbon dioxide inhalation and the peritoneal cavity lavaged with Hank's balanced salt solution (HBSS). After concentration of the PMNL by centrifugation, contaminating erythrocytes were removed by hypotonic lysis. The PMNL were then washed twice by centrifugation (400 x g for 10 minutes) and resuspended in HBSS. Cell viability was greater than 90% by Trypan Blue exclusion and greater than 90% of the cells were PMNL by Wright-Giemsa stain.
MPO release was determined using the MPO catalyzed oxidation of o-dianisidine. The experiments were carried out in 96-well microtiter plates (Webster and Henson, 1978). In each well, 50 microliter (µl) aliquots of a PMNL suspension (2 x 10⁷ cells/mL in HBSS) were incubated with 50 µl of HBSS containing vehicle (0.3% DMSO) or inhibitor for 30 minutes at 37°C. The final DMSO concentration never exceeded 0.3% and was constant throughout each experiment. To activate the PMNL, 50 µl of one of the following were added for 30 minutes at 37°C: N-formyl-Met-Leu-Phe (fMLP; 0.1 µM); phorbol myristate acetate (PMA, 200 ng/mL); or rat serum opsonized zymosan (OZ; 2.6 mg/mL, prepared by the method of Ward et al., 1983). The stimuli were added in 50 µl HBSS which also contained the compounds or vehicle, as appropriate, to avoid changing the inhibitor concentration. Cell activation was terminated by centrifugation of the plates at 600 x g for 5 minutes at 22°C. Aliquots (100 µl) of supernatant were removed from each well and transferred to a 96-well flatbottomed microtiter plate for the MPO assay. To each aliquot of supernatant was added 100 µl of a freshly prepared solution containing 50 µl of 0.2 M sodium phosphate buffer (pH 6.2), 25 µl of 3.9 mM o-dianisidine and 25 µl of 0.015 M hydrogen peroxide. Blanks were obtained using the same solution without hydrogen peroxide. The plates were mixed and then incubated at room temperature in the dark for about 15 minutes. Absorbances of the samples were measured at 450 nm.
Rat PMNL were isolated in HBSS containing Ca⁺². As summarized in the figures below, fMLP stimulation of rat PMNL in the presence of cytochalasin B or with opsonized zymosan or with ionomycin results in the release of myeloperoxidase (fMLP/MPO, OZ/MPO, and ION/MPO; columns 2, 4, and 6 respectively).

[1] = fMLP stimulus in the presence of cytochalasin B, read-out: IMLP/MPO
[2] = ionomycin stimulus, read-out: ION/MPO
[3] = opsonized zymosan stimulus, read-out: OZ/MPO

| SMILES | inhibition at 1 µM [1] [%] | inhibition at 3 µM [1] [%] | inhibition at 10 µM [1] [%] | inhibition at 30 µM [1] [%] | inhibition at 100 µM [1] [%] | inhibition at 1 µM [2] [%] | inhibition at 3 µM [2] [%] | inhibition at 10 µM [2] [%] | inhibition at 30 µM [2] [%] | inhibition at 100 µM [2] [%] | inhibition at 1 µM [3] [%] | inhibition at 3 µM [3] [%] | inhibition at 10 µM [3] [%] | inhibition at 30 µM [3] [%] | inhibition at 100 µM [3] [%] | inhibition of release of myeloperoxidase |
| --- | --- | --- | --- | --- | --- | --- | --- | --- | --- | --- | --- | --- | --- | --- | --- | --- |
| O=C(C#Cc1ccncc1)c1ccccc1 [MDL 101,098, 1-Phenyl-3-(4-pyridinyl)-2-propyne-1-one] | 2.9 | 7.5 | 34.9 | 80.8 | 96.2 | -2.8 | 0 | 5.7 | 12.7 | 88.4 | 5.4 | 14.7 | 48.7 | 92.2 | 97.2 | dose dependent inhibition |
| CN(C)c1ccc(C(=O)C#Cc2ccncc2)cc1 [MDL 102,175, 1-(4-Dimethylaminophenyl)-3-(4-pyridinyl)-2-propyne-1-one] | 12.6 | 27.9 | 70.6 | 104 | 113 | 0.8 | 1.5 | 21.3 | 20.5 | 83.4 | 16.9 | 26.6 | 78.5 | 107 | 118 | dose dependent inhibition |
